pIC50: −log10 of the molar value.
What was measured:
[1] = Selectivity index, ratio of CC50 for human HepG2(2.2.15) cells to IC50 for HBV by hepatitis B surface antigen release detection assay; type: functional
[2] = Cytotoxicity against human HepG2(2.2.15) cells; type: cell-based
[3] = test system: Hepatitis B virus; assay: Antiviral activity against Hepatitis B virus infected in human HepG2(2.2.15) cells assessed as reduction in hepatitis B surface antigen release; type: functional, organism-based
[4] = test system: Hepatitis B virus; assay: Antiviral activity against Hepatitis B virus infected in human HepG2(2.2.15) cells assessed as reduction in viral DNA replication; type: functional, organism-based
[5] = Selectivity index, ratio of CC50 for human HepG2(2.2.15) cells to IC50 for HBV by viral DNA replication detection assay; type: functional
[6] = test system: Hepatitis B virus; assay: Antiviral activity against Hepatitis B virus infected in human HepG2(2.2.15) cells assessed as reduction in hepatitis B e-antigen release; type: functional, organism-based
[7] = Selectivity index, ratio of CC50 for human HepG2(2.2.15) cells to IC50 for HBV by hepatitis B e-antigen release detection assay; type: functional

SMILES	pIC50 [3]	pIC50 [4]	pIC50 [6]	Ratio CC50/IC50 [1]	CC50 [2] [µM]	Ratio CC50/IC50 [5]	Ratio CC50/IC50 [7]
CC1(C)[C@@H](O)CC[C@]2(C)[C@H]3CC=C4[C@@H]5C[C@@](C)(C(=O)OCC(N)=O)CC[C@]5(C)CC[C@@]4(C)[C@]3(C)CC[C@@H]12	3.46	4.19	< 2.96	1.4	472	7.3	
CC1(C)[C@@H](O)CC[C@]2(C)[C@H]3C(=O)C=C4[C@@H]5C[C@@](C)(C(=O)O)CC[C@]5(C)CC[C@@]4(C)[C@]3(C)CC[C@@H]12 [ENOXOLONE]	4.68	4.41	3.88	2.6	55.1	1.4	
COc1cc(/C=C/C(=O)O[C@H]2CC[C@]3(C)[C@H]4CC=C5[C@@H]6C[C@@](C)(C(=O)OCC(N)=O)CC[C@]6(C)CC[C@@]5(C)[C@]4(C)CC[C@H]3C2(C)C)cc(OC)c1OC	3.64	< 3.92	3.60	>2.1	> 481		>1.9
CCC(=O)O[C@H]1CC[C@]2(C)[C@H]3C(=O)C=C4[C@@H]5C[C@@](C)(C(=O)O)CC[C@]5(C)CC[C@@]4(C)[C@]3(C)CC[C@H]2C1(C)C [GLYCYRRHETINIC ACID PROPIONATE]	2.87	4.35	4.31		99.6	2.2	2
CCCC(=O)O[C@H]1CC[C@]2(C)[C@H]3C(=O)C=C4[C@@H]5C[C@@](C)(C(=O)O)CC[C@]5(C)CC[C@@]4(C)[C@]3(C)CC[C@H]2C1(C)C	3.43	4.32	4.43		119	2.5	3.2
CC1(C)[C@@H](O)CC[C@]2(C)[C@H]3CC=C4[C@@H]5C[C@@](C)(C(=O)O)CC[C@]5(C)CC[C@@]4(C)[C@]3(C)CC[C@@H]12	4.31	4.33	< 2.86	3.3	162	3.4	
COc1cc(/C=C/C(=O)O[C@H]2CC[C@]3(C)[C@H]4C(=O)C=C5[C@@H]6C[C@@](C)(C(=O)O)CC[C@]6(C)CC[C@@]5(C)[C@]4(C)CC[C@H]3C2(C)C)cc(OC)c1OC	< 2.93	3.92	3.63		> 1160	>9.7	> 5
CC1(C)[C@@H](O)CC[C@]2(C)[C@H]3C(=O)C=C4[C@@H]5C[C@@](C)(C(=O)OCc6ccc(OC(F)(F)F)cc6)CC[C@]5(C)CC[C@@]4(C)[C@]3(C)CC[C@@H]12	< 2.95	3.80	< 2.95		> 1130	>7.1	
C=CCCOC(=O)[C@@]1(C)CC[C@]2(C)CC[C@]3(C)C(=CC(=O)[C@@H]4[C@@]5(C)CC[C@H](O)C(C)(C)[C@@H]5CC[C@]43C)[C@@H]2C1	< 2.76	3.48	< 2.76		> 1750	>5.3	
CC1(C)[C@@H](O)CC[C@]2(C)[C@H]3C(=O)C=C4[C@@H]5C[C@@](C)(C(=O)OCc6ccccc6)CC[C@]5(C)CC[C@@]4(C)[C@]3(C)CC[C@@H]12	< 2.70	3.82	< 2.70		2010	13.1	
CC1(C)C(=O)CC[C@]2(C)[C@H]3C(=O)C=C4[C@@H]5C[C@@](C)(C(=O)O)CC[C@]5(C)CC[C@@]4(C)[C@]3(C)CC[C@@H]12	3.36	3.72	< 3.33	1.1	467	2.5	
CCOCCOC(=O)[C@@]1(C)CC[C@]2(C)CC[C@]3(C)C(=CC(=O)[C@@H]4[C@@]5(C)CC[C@H](O)C(C)(C)[C@@H]5CC[C@]43C)[C@@H]2C1	3.08	3.70	< 2.77		541	2.7	

Now those with a higher pIC50 [4], led by results:

pIC50 [3]	pIC50 [4]	pIC50 [6]	SMILES	Ratio CC50/IC50 [1]	CC50 [2] [µM]	Ratio CC50/IC50 [5]	Ratio CC50/IC50 [7]
4.42	4.51	4.25	CCOC(=O)CCCOC(=O)[C@@]1(C)CC[C@]2(C)CC[C@]3(C)C(=CC(=O)[C@@H]4[C@@]5(C)CC[C@H](O)C(C)(C)[C@@H]5CC[C@]43C)[C@@H]2C1	1.4	53.3	1.7	
4.40	4.54	< 2.95	CC1(C)[C@@H](O)CC[C@]2(C)[C@H]3C(=O)C=C4[C@@H]5C[C@@](C)(C(=O)OCC(N)=O)CC[C@]5(C)CC[C@@]4(C)[C@]3(C)CC[C@@H]12	1.4	55.3	1.9	
< 2.86	4.54	< 2.86	CC1(C)[C@@H](O)CC[C@]2(C)[C@H]3C(=O)C=C4[C@@H]5C[C@@](C)(C(=O)OCCCBr)CC[C@]5(C)CC[C@@]4(C)[C@]3(C)CC[C@@H]12		160	5.6	
3.03	4.62	< 2.69	CC1(C)[C@@H](O)CC[C@]2(C)[C@H]3C(=O)C=C4[C@@H]5C[C@@](C)(C(=O)OCc6ccc(-n7cccn7)cc6)CC[C@]5(C)CC[C@@]4(C)[C@]3(C)CC[C@@H]12	2.1	1990	83.6	
4.26	4.67	< 2.92	CC1(C)[C@@H](O)CC[C@]2(C)[C@H]3C(=O)C=C4[C@@H]5C[C@@](C)(C(=O)OCc6ccc(S(C)(=O)=O)cc6)CC[C@]5(C)CC[C@@]4(C)[C@]3(C)CC[C@@H]12	18.8	1030	48.3	
3.23	4.71	< 2.88	CC1(C)[C@@H](O)CC[C@]2(C)[C@H]3C(=O)C=C4[C@@H]5C[C@@](C)(C(=O)OCc6cccc(F)c6)CC[C@]5(C)CC[C@@]4(C)[C@]3(C)CC[C@@H]12	>2.2	> 1310	>67.2	
4.36	4.74	< 2.74	CC1(C)[C@@H](O)CC[C@]2(C)[C@H]3C[C@H]4O[C@]45[C@@H]4C[C@@](C)(C(=O)O)CC[C@]4(C)CC[C@@]5(C)[C@]3(C)CC[C@@H]12		35.7	1.9	
< 3.09	4.74	< 3.09	CC1(C)[C@@H](O)CC[C@]2(C)[C@H]3C(=O)C=C4[C@@H]5C[C@@](C)(C(=O)OCc6ccc(Br)cc6F)CC[C@]5(C)CC[C@@]4(C)[C@]3(C)CC[C@@H]12		> 1430	>79	
< 2.77	4.82	< 2.77	CC1(C)[C@@H](O)CC[C@]2(C)[C@H]3C(=O)C=C4[C@@H]5C[C@@](C)(C(=O)OCc6cccc7cccnc67)CC[C@]5(C)CC[C@@]4(C)[C@]3(C)CC[C@@H]12		> 1700	>111	
4.24	4.85	< 2.93	CC1(C)[C@@H](O)CC[C@]2(C)[C@H]3C(=O)C=C4[C@@H]5C[C@@](C)(C(=O)OCCOc6ccccc6)CC[C@]5(C)CC[C@@]4(C)[C@]3(C)CC[C@@H]12	1.8	101	7.1	
3.84	4.88	< 2.86	CC1(C)[C@@H](O)CC[C@]2(C)[C@H]3C(=O)C=C4[C@@H]5C[C@@](C)(C(=O)OCCCCCCCCO)CC[C@]5(C)CC[C@@]4(C)[C@]3(C)CC[C@@H]12	1.1	157	11.9	
4.44	5.04	< 2.83	Cc1nc(COC(=O)[C@@]2(C)CC[C@]3(C)CC[C@]4(C)C(=CC(=O)[C@@H]5[C@@]6(C)CC[C@H](O)C(C)(C)[C@@H]6CC[C@]54C)[C@@H]3C2)cs1	1	37.2	4.1	
3.22	5.05	< 2.88	CC1(C)[C@@H](O)CC[C@]2(C)[C@H]3C(=O)C=C4[C@@H]5C[C@@](C)(C(=O)OCc6ccc([N+](=O)[O-])cc6)CC[C@]5(C)CC[C@@]4(C)[C@]3(C)CC[C@@H]12	>2.2	> 1330	>149.2	
< 3.01	5.24	< 3.01	CC1(C)[C@@H](O)CC[C@]2(C)[C@H]3C(=O)C=C4[C@@H]5C[C@@](C)(C(=O)OCc6ccc(I)cc6)CC[C@]5(C)CC[C@@]4(C)[C@]3(C)CC[C@@H]12		> 986	>172.6	
	6.05		C[C@H](Cn1cnc2c(N)ncnc21)OCP(=O)(O)O [TENOFOVIR ANHYDROUS]	>1.2	> 1760	>1973.4	>1.4

— ChEMBL document CHEMBL2021793, “Synthesis, biological evaluation and structure-activity relationships of glycyrrhetinic acid derivatives as novel anti-hepatitis B virus agents” (Bioorg Med Chem Lett, 2012)
